Assay results as given in patent US11452712B2, “Methods and compositions involving (S)-bucindolol” (ARCA BIOPHARMA, INC., priority 2008, dated 2022).

Legend:
[1] = biological target: T1, β1 389 Gly/Gly receptor (Homo sapiens, UniProt P08588); assay: Competition binding in human LV membranes, β1 389 Gly/Gly; conditions: 83% β1 AR, genotype 389 Gly/Gly
T1 construct: human LV membranes that are 83% β1; AR and genotypically 389 Gly/Gly; from tissue; host or cells: human left ventricular membranes, one patient, genotype 389 Gly/Gly
T1 sequence (P08588 whole entry): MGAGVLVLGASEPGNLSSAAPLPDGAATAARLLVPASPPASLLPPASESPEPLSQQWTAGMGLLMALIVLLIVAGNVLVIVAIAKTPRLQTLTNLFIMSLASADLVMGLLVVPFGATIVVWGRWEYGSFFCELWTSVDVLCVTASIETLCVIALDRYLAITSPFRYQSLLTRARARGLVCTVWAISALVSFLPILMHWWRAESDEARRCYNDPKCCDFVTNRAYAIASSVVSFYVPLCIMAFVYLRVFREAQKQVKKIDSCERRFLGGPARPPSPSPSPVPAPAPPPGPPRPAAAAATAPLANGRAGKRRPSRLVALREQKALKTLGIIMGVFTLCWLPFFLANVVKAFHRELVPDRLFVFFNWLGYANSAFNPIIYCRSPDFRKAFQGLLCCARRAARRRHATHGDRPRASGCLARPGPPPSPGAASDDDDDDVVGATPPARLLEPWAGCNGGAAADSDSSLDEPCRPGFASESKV
Method: (§1) FIG. 14A, 14B. 14A—Competition curve between S- or R-bucindolol in human LV membranes that are 86% β1. AR and genotypically 389 Arg/Arg. The respective Kis are 0.49 nM and 14.0 nM for the S- and R-isomers. 14B—Competition curve between S- or R-bucindolol in human LV membranes that are 83% β1. AR and genotypically 389 Gly/Gly. The respective Kis are 0.59 nM and 26.3 nM for the S- and R-isomers.
(§2) FIG. 14 gives the binding of S- and R-bucindolol in left ventricular membranes prepared from one patient who had the β1 389 Arg/Arg receptor (FIG. 14A), and another with the Gly/Gly (FIG. 14B) genotype. As can be observed, the S-isomer has much higher affinity, in both genotypes. In addition, the Kis are similar for both the S- (0.5-0.6 nM) and R- (around 14-26 nM) isomers in the Arg/Arg and Gly/Gly preparations. Similar results were obtained in the presence of Gpp(NH)p.

[2] = tested on: Human umbilical vein endothelial cells; assay: CaI-stimulated NO/ONOO− release ratio in HUVECs; assay type: cell-based; conditions: for favorable effect on endothelial function as compared to bucindolol racemate: NO and ONOO− release, HUVECs; for increase in NO/ONOO− ratio: 1.0 μM drug
Method: (§3) Human umbilical vein endothelial cells were isolated into primary cultures from healthy female donors by Clonetics (San Diego, Calif.) and purchased as proliferating cells. All cell culture donors were healthy, with no pregnancy or prenatal complications. None of the donors took any drugs regularly and all were nonsmokers and consumed regular caloric/content diet. The cultured cells were incubated in 95% air/5% CO2 at 37° C. and passage by an enzymatic (trypsin) procedure. The confluent cells (4 to 5×10^5 cells per 35-mm dish) were placed with minimum essential medium containing 3 mM L-arginine and 0.1 mM (6R)-5,6,7,8-tetrahydrobiopterin (BH4). Before the experiments, the cells (from second or third passage) were rinsed twice with Tyrode-HEPES buffer with 1.8 mM CaCl2. Bucindolol and its enanatiomers were obtained from Arca Discovery (Denver, Colo.).
(§4) Measurement of NO was carried out with electrochemical nanosensors (FIG. 1). Their design was based on previously developed and well-characterized chemically modified carbon-fiber technology (Lvovich and Scheeline, 1997; Malinski and Taha, 1992). Each of the nanosensors was constructed by depositing a sensing material on the tip of a carbon fiber (length 4-5 μm, diameter 0.2-0.5 μm). The fibers were sealed with nonconductive epoxy and electrically connected to copper wires with conductive silver epoxy. The inventors used a conductive film of polymeric nickel (II) tetrakis (3-methoxy-4-hydroxyphenyl) porphyrin for the NO-sensor.
(§5) The quantification of each analyte (concentration in nmol/L) was performed using a maximum current from amperograms and standard calibration curves. The reproducibility of measurements with nanosensors is relatively high, as previously described (Lvovich and Scheeline, 1997; Malinski and Taha, 1992). […] The sensors were slowly raised 5±2 μm from the surface of a single endothelial cell.
The most comprehensive measurement of endothelial function is the ratio of NO to
ONOO^− following treatment with these agents. […] The basis for these differences is not understood but may be due to genetic variability in the eNOS protein. Bucindolol racemate (1.0 μM) increased the NO/ONOO^− ratio in white donors (49%), Mexican American donors (23%), and African American donors (38%) as shown in FIGS. 11-13. […] Again, the favorable effects of bucindolol and its enanatiomers were much more apparent at the higher dose (10.0 μM) by at least two fold. The effect at the high concentration was especially evident in higher risks populations (African Americans, Mexican Americans).

[3] = biological target: T2, β1 389 Arg/Arg receptor (Homo sapiens, UniProt P08588, G389R); assay: Competition binding in human LV membranes, β1 389 Arg/Arg
T2 construct: left ventricular membranes prepared from one patient who had the β1 389 Arg/Arg receptor; from tissue; host or cells: human left ventricular membranes, one patient, genotype 389 Arg/Arg
T2 sequence (P08588 whole entry G389R): as the sequence (P08588 whole entry) above, with G389R counted along it
Method: as §1, §2

[4] = tested on: Human umbilical vein endothelial cells; assay: CaI-stimulated NO release in HUVECs (electrochemical nanosensor); assay type: cell-based; conditions: 1.0 μM drug, 6 hr pretreatment; for NO release: 1.0 μM CaI stimulation, mean±S.D.; for increase in NO release: versus control
Method: as §3, §4
The NO nanosensors (diameter 1-2 μm) with a platinum wire (0.1 mm) counter electrode and saturated calomel reference electrode (SCE) were applied. Differential pulse voltammetry (DPV) and amperometry were performed with a computer-based Gamry VFP600 multichannel potentiostat. DPV was used to measure the basal NO concentrations, and amperometry was used to measure changes in NO concentrations from its basal level with time. The DPV current at the peak potential characteristic for NO oxidation (0.65 V) […] was directly proportional to the local concentrations of these compounds in the immediate vicinity of the sensor. Linear calibration curves (current vs. concentration) were constructed for each sensor from 10 nM to 3 μM before and after measurements with aliquots of NO standard solutions, respectively. The detection limit of the sensors was 1.0 nM.
as §5
(§6) The HUVEC preparation is stable over the course of these experiments with the cells remaining viable and active responses to NO stimulation in culture for >24 hours. For robust statistical analysis, randomly selected cells were used for each concentration and type of drug used in these analyses.

[5] = tested on: Human umbilical vein endothelial cells; assay: CaI-stimulated ONOO− release in HUVECs (nanosensor); assay type: cell-based; conditions: 1.0 μM drug; for ONOO− levels: CaI stimulation, mean±S.D.; for reduction of ONOO− levels: versus control
Excerpt: FIG. 1. Schematic diagram of a NO nanosensor placed in close proximity to the surface of a single endothelial cell. The nanosensor measures the levels of NO, O2^−, and ONOO^− from the intact endothelium in real time. The sensors are made by depositing a sensing material on the tip of carbon fiber with a diameter of about 0.5 μm. The fibers are sealed with nonconductive epoxy and electrically connected to wires (gold, copper) with conductive silver epoxy.
as §3, §5, §6

[6] = biological target: T3, β1AR Gly carrier (Homo sapiens, UniProt P08588); assay: Force development in isolated failing human right ventricular trabeculae, β1AR Gly carrier; assay type: cell-based
T3 construct: isolated failing human right ventricular trabeculae; from tissue; host or cells: isolated failing human right ventricular trabeculae, β1AR 389 Gly carrier genotypes
T3 sequence (P08588 whole entry): as the sequence (P08588 whole entry) above

[7] = biological target: T4, β1AR Arg/Arg (Homo sapiens, UniProt P08588, G389R); assay: Force development in isolated failing human right ventricular trabeculae, β1AR Arg/Arg; assay type: cell-based
T4 construct: isolated failing human right ventricular trabeculae; from tissue; host or cells: isolated failing human right ventricular trabeculae, β1AR Arg/Arg genotype
T4 sequence (P08588 whole entry G389R): as the sequence (P08588 whole entry) above, with G389R counted along it

[8] = cited from earlier work
[9] = human LV membranes, 86% β1 AR, genotype 389 Arg/Arg
[10] = span over the Arg/Arg and Gly/Gly preparations

Row | SMILES | Ki [1] [nM] | favorable effect on endothelial function as compared to bucindolol racemate [2] | Ki [3, 9] [nM] | Ki [3, 10] [nM] | NO release ([4]; African American donors) [nM] | increase in NO release ([4]; African American donors) [%] | NO release ([4]; Mexican American donors) [nM] | increase in NO release ([4]; Mexican American donors) [%] | NO release ([4]; non-Hispanic white donors) [nM] | increase in NO release ([4]; non-Hispanic white donors) [%] | ONOO− levels ([5]; African American donors) [nM] | reduction of ONOO− levels ([5]; African American donors) [%] | ONOO− levels ([5]; Mexican American donors) [nM] | reduction of ONOO− levels ([5]; Mexican American donors) [%] | ONOO− levels ([5]; non-Hispanic white donors) [nM] | reduction of ONOO− levels ([5]; non-Hispanic white donors) [%] | also measured
1 | CC(C)(Cc1c[nH]c2ccccc12)NCC(O)COc1ccccc1C#N (single isomer, unassigned) [(R)-bucindolol] | 26.3 | less activity | 14 | 14 to 26 | – | – | – | – | – | – | – | – | – | – | – | – | –
2 | CC(C)(Cc1c[nH]c2ccccc12)NCC(O)COc1ccccc1C#N (single isomer, unassigned) [(S)-bucindolol] | 0.59 | more pronounced | 0.49 | 0.5 to 0.6 | 318 ± 16 | 27 | 358 ± 32 | 17 | 553 ± 35 | 35 | 352 ± 26 | 18 | 419 ± 34 | 15 | 240 ± 24 | 23 | –
3 | CC(C)NCC(O)COc1ccc(CC(N)=O)cc1 (stereo not shown) [atenolol] | – | – | – | – | – | – | – | – | – | – | – | – | – | – | – | – | effect on NO/ONOO− ratio (in words) ([2]; 1.0 and 10.0 μM, three donor groups): failed to produce an effect
4 | CC(C)(Cc1c[nH]c2ccccc12)NCC(O)COc1ccccc1C#N (racemic) [bucindolol, 2-(3-(1-(1H-indol-3-yl)-2-methylpropan-2-ylamino)-2-hydroxypropoxy)benzonitrile] | – | – | – | – | 306 ± 25 | 22 | 321 ± 28 | 5 | 475 ± 27 | 16 | 378 ± 30 | 12 | 422 ± 27 | 14 | 244 ± 29 | 19 | functional behaviour at the receptor (force development) ([6]; in the presence of forskolin): neutral antagonist; functional behaviour at the receptor (force development) ([6]; low activation states): inverse agonist; functional behaviour at the receptor (force development) ([7]; high signal transduction, adenylyl cyclase activated by forskolin): inverse agonist; functional behaviour at the receptor (force development) ([7]; low levels of signal transduction (low receptor activation)): neutral antagonist; increase in NO/ONOO− ratio ([2]; African American donors): 38%; increase in NO/ONOO− ratio ([2]; Mexican American donors): 23%; increase in NO/ONOO− ratio ([2]; white donors): 49%; hazard ratio for the primary endpoint of all-cause mortality ([8]; advanced heart failure, at premature stop of trial, C.I.s 0.78-1.02): 0.90; mortality versus placebo (in words) ([8]; at early termination of BEST): no significant difference in mortality; reduction of mortality or heart failure hospitalization ([8]; entire BEST cohort, p<0.0001): 19%
